Laboratory results reported in publication PMC7767506, “Synthesis and Characterization of Store-Operated Calcium Entry Inhibitors Active in the Submicromolar Range” (International Journal of Molecular Sciences, 2020).
Entries after “also recorded” stand apart in the source; their conditions may differ.

Assays:
Jurkat cells = assay: TUNEL apoptosis assay in Jurkat cells; type: cell-based, human
Experimental: To verify the mechanism of cell death induced by compound P11, we next performed caspase-3 activity assays using the fluorogenic Ac-DEVD-AFC substrate as well as a TUNEL assay.
We measured the apoptosis levels in Jurkat cells by the “in situ cell death detection” kit (Roche Applied Science, Meylan, France). Briefly, 50,000 cells/well were seeded in a 96-well plate and treated with or without 10 µg/mL PHA and 0 to 1 µM P11 for 6, 12, or 24 h. Cells were spun, fixed, and permeabilized according to the manufacturer’s instructions and the terminal transferase dUTP Nick end labelling reaction was performed in the dark during 60 min at 37 °C. For visualization of the results, an epifluorescence microscope (Axioskop, Karl Zeiss, Le Pecq, France) was used at an excitation wavelength of 488 nm, and an emission wavelength of 545 nm. Cells were also loaded with 4’,6’ –diamidino-2-phenylindole (DAPI) to visualize the nuclei. Total cell number (>200) and TUNEL-positive cells were counted in several fields (>5) and the ratio of apoptotic cells was calculated. This experiment was repeated three times.

[1] = test system: SOCE in MDA-MB231 (breast cancer) cells; assay: Thapsigargin-induced SOCE in MDA-MB231 cells, Indo-1; type: cell-based, human
Experimental: We also tested P11 on the DG75 (Burkitt B lymphoma), U937 (monocytic lymphoma), and MDA-MB231 (breast carcinoma) cell lines. […] Thus, in several cell lines, full inhibition of the SOCE was already obtained at a concentration of 100 nM (Figure 3B).
[Ca^2+]cyt was recorded by a fluorimetric ratio technique as previously described. Leukocytes were spun and resuspended at a density of 10^6 cells/mL in Hepes buffered saline (HBS; 135 mM NaCl, 5.9 mM KCl, 1.2 mM MgCl2, 11.6 mM Hepes, 11.5 mM glucose adjusted to pH 7.3 with NaOH). Due to the presence of 0.002% Ca^2+ in the NaCl, this HBS medium contained 0.1 mM of Ca^2+. Then, cells were incubated in the dark with 4 μM Indo-1-AM for one hour at room temperature under slow agitation. […] Ultraviolet light of 360 nm was used for excitation of Indo-1, and emissions at 405 and 480 nm were recorded. […] The maximum Indo-1 fluorescence (Rmax) was obtained by adding 1 µM ionomycin to the cell suspension in the presence of 10 mM extracellular CaCl2. Minimum fluorescence was determined following the depletion of external Ca^2+ with 5 mM EGTA.
To visualize the SOCE, cells were placed into the quartz cuvette and 0.5 EGTA was added just before the beginning of the recordings. […] In the dose-response experiments, different concentrations of 2-APB and its analogs were added 30 s prior to Ca^2+ readdition.

SERCA = SERCA (Mus musculus, UniProt O55143); assay: SERCA-mediated 45Ca2+ store loading in permeabilized L15 fibroblasts; type: cell-based
Experimental: Measurements of SERCA-mediated ^45Ca^2+ store loading and IP3-dependent release from the ER Ca^2+ store were performed on permeabilized cells in unidirectional conditions. As this approach required the use of cells forming strongly adherent monolayers, we used L15 fibroblasts stably overexpressing IP3R1, similarly to our previous work.
The L15 fibroblasts stably overexpressing IP3R1 were seeded in gelatin-coated 12-well plates (Greiner, Frickenhausen, Germany) at a density of 60,000 cells per well. Unidirectional ^45Ca^2+ flux experiments on confluent cell monolayers were performed at 30 °C after membrane permeabilization with saponin (40 µg/mL), exactly as previously described. After permeabilization, the non-mitochondrial Ca^2+ stores were loaded for 45 min in 120 mM KCl, 30 mM imidazole–HCl (pH 6.8), 5 mM MgCl2, 5 mM ATP, 0.44 mM EGTA, 10 mM NaN3, and 150 nM free ^45Ca^2+ (28 µCi mL^−1). Subsequently, efflux was initiated by incubation in efflux medium (120 mM KCl, 1 mM EGTA, 10 µM TG and 30 mM imidazole–HCl pH 6.8). The latter medium was replaced every two minutes for 18 minutes. The exact amount of Ca^2+ at each time point is calculated by summing in retrograde order the amount of radioactivity remaining in the cells at the end of the efflux and the radioactivity collected during the successive time intervals. This allows to calculate the steady-state content of the ER Ca^2+ stores (indicative for the SERCA activity, after subtraction of the loading achieved in the presence of 2 µM TG) the basal leak rate of Ca^2+ out of the stores and the IP3-induced Ca^2+ release after addition of IP3 (0.7 µM). These various parameters were measured both in control conditions or in the presence of various 2-APB analogs as indicated. To assess the effect of the 2-APB analogs on the SERCA-mediated loading of the ER Ca^2+ stores, the analogs were added during the ^45Ca^2+-loading phase as described previously. Obviously, compounds that strongly stimulated the basal Ca^2+ leak out of the stores (as P8) could not be investigated for their effect on SERCA activity (as Ca^2+ loading was already compromised by the increased leak) or on IP3-induced Ca^2+ release (as the decreased luminal Ca^2+ level impacted both the driving force for Ca^2+ release and the sensitivity of the IP3R).

[2] = test system: PHA-stimulated Jurkat cells; assay: PHA-induced Ca2+ mobilization in Jurkat cells, Indo-1; type: cell-based, human
Description: Having shown that compound P11 was able to block the Jurkat cell SOCE, we next performed experiments using phytohemagglutinin (“PHA”). PHA is commonly used to cross-link the T cell receptor allowing the synthesis of IL-2 and thereafter the T cell activation. […] Noteworthy, PHA was able to induce a weak Ca^2+ release from internal stores (orange curve). […] However, after reaching a peak at 180 s, the [Ca^2+]cyt started to decay and decreased to a value beneath the [Ca^2+]cyt before cell stimulation.
In experiments with PHA, cells were placed in the cuvette, and 0.9 mM CaCl2 was added to reach a 1 mM extracellular concentration. Free Ca^2+ concentrations were calculated using the Bad4 software

SERCA, sequence (O55143 whole entry): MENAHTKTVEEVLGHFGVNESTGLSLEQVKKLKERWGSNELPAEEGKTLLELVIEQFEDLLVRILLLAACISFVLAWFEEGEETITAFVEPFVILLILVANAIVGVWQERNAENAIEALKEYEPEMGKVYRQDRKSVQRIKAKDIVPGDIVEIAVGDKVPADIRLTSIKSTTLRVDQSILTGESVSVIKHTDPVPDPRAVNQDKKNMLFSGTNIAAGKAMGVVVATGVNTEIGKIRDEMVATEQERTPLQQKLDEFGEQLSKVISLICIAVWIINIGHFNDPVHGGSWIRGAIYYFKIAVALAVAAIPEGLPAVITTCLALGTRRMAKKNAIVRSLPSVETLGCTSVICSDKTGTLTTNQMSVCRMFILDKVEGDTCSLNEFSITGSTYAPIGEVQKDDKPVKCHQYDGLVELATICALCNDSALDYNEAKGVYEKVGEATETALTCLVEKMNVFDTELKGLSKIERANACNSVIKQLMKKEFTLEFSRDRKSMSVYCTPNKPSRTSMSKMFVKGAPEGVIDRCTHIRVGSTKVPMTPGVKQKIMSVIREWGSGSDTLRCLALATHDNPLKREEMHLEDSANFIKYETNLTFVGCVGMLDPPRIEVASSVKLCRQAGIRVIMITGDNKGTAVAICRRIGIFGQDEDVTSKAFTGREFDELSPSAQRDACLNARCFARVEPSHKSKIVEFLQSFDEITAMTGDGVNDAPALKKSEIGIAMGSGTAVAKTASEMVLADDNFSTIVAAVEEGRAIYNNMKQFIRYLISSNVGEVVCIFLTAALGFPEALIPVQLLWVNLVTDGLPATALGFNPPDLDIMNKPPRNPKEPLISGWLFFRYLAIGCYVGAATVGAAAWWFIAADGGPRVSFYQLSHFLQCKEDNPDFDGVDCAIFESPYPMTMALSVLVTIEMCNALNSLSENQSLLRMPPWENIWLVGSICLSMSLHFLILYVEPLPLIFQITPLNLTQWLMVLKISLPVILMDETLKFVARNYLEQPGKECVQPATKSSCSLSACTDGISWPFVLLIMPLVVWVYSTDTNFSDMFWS

2-(dibiphenyl-4-ylboryloxy)ethanamine [P11]
apoptotic cells (TUNEL) (Jurkat cells; 1 µM P11 alone, 24 h): ~ 5%
cells with fragmented DNA (TUNEL) (Jurkat cells; 10 µg/mL PHA + 1 µM P11, 24 h): 17.9 ± 1.2%
fold increase of cells with fragmented DNA (Jurkat cells; PHA + P11 at concentrations > 10 nM, vs resting conditions): ≈ 4.5 fold
fold increase of apoptotic cells (Jurkat cells; costimulation PHA + P11 > 10 nM, vs PHA alone (Figure 7 legend)): ≈ 1.5 fold
Ki [1]: 50 ± 5 nM
effect on SERCA (SERCA; concentrations < 1 µM): devoid of any inhibitory activity; also recorded: without any effect
change of SERCA activity (SERCA; concentrations > 30 µM): −89 ± 1%
Ki (SERCA; permeabilized L15 fibroblasts): 7.4 ± 2 µM
PHA-induced Ca2+ release from internal stores ([2]; 1 µM): did not affect
PHA-induced Ca2+ mobilization ([2]; increasing [P11], 10 µg/mL PHA, 1 mM extracellular CaCl2): largely inhibited
